Tests used:
Assay type in all cases: cell-based
human TLR7 = target: T1, human TLR7 (Homo sapiens, UniProt Q9NYK1); assay: TLR7 inhibition reporter assay (HEK-Blue SEAP); conditions: HEK-Blue cells overexpressing human TLR7, stimulated with gardiquimod 7.5 μM, 22 hour incubation
T1 construct: host or cells: HEK-Blue cells
T1 sequence (Q9NYK1 27-1049): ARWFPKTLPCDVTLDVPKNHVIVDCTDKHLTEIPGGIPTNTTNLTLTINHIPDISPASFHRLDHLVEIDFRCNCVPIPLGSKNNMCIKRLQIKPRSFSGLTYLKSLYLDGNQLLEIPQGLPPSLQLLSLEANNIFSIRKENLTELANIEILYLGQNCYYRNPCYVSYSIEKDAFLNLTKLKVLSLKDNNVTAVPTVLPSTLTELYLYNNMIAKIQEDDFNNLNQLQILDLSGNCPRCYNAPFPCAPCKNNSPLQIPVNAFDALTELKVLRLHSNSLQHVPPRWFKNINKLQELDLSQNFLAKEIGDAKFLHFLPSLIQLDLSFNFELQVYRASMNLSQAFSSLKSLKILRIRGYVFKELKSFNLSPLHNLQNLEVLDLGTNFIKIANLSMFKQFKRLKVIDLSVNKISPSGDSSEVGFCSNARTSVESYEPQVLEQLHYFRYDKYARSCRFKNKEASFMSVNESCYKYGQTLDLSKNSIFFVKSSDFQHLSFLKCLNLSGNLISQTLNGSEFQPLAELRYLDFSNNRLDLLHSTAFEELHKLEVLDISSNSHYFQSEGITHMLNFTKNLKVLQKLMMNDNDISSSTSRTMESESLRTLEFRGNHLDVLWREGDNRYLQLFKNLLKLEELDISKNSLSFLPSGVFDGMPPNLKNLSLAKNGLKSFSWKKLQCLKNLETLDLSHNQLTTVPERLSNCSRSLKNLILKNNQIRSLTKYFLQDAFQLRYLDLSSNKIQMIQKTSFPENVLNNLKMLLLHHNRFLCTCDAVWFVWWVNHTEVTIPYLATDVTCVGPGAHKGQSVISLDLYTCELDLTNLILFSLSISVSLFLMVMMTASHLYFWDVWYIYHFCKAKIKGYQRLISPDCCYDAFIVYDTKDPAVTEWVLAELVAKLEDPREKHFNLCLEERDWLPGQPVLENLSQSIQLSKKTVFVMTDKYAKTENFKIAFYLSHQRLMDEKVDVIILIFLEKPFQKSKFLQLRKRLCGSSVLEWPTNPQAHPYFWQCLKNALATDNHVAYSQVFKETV
Procedure, shortened: (§1)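 Reporter HEK-Blue lines; cpd 0.05 nM–50 μM, 30 min preincubation RT; agonist: TLR7 gardiquimod 7.5 μM, TLR8 R848 15.9 μM, TLR9 ODN2006 5 nM; 22 h 37 °C; SEAP detected colorimetrically; % inhib vs known inhibitor.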

human TLR8 = target: T2, human TLR8 (Homo sapiens, UniProt Q9NR97); assay: TLR8 inhibition reporter assay (HEK-Blue SEAP); conditions: HEK-Blue cells overexpressing human TLR8, stimulated with R848 15.9 μM, 22 hour incubation
T2 construct: host or cells: HEK-Blue cells
T2 sequence (Q9NR97 27-1041): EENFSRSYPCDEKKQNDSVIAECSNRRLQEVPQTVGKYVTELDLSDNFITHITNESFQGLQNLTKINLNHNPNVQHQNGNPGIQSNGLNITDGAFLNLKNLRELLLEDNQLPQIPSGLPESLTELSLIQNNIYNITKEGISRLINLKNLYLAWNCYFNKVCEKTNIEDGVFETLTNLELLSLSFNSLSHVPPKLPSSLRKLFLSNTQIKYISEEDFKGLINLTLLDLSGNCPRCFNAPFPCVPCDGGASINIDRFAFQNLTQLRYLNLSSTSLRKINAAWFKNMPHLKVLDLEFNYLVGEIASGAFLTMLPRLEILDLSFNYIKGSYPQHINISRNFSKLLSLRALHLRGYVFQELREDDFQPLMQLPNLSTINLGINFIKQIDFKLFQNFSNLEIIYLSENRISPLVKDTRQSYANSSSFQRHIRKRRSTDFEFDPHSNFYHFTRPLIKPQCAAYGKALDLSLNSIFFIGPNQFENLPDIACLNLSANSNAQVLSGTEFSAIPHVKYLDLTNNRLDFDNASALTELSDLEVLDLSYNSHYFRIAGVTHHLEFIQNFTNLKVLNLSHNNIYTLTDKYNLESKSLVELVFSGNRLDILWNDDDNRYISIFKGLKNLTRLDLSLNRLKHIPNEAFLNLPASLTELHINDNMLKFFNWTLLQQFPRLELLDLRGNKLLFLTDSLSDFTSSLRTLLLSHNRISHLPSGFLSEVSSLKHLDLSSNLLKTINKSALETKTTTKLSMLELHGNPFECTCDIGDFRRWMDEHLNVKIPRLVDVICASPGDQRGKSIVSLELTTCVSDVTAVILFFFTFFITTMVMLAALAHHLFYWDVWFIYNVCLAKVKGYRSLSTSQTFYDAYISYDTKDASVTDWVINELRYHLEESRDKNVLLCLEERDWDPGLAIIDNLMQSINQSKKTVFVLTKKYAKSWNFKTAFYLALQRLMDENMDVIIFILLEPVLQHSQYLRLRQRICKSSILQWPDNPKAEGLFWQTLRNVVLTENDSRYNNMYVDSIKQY
Procedure, shortened: as §1

human TLR9 = target: T3, human TLR9 (Homo sapiens, UniProt Q9NR96); assay: TLR9 inhibition reporter assay (HEK-Blue SEAP); conditions: HEK-Blue cells overexpressing human TLR9, stimulated with ODN2006 5 nM, 22 hour incubation
T3 construct: host or cells: HEK-Blue cells
T3 sequence (Q9NR96 26-1032): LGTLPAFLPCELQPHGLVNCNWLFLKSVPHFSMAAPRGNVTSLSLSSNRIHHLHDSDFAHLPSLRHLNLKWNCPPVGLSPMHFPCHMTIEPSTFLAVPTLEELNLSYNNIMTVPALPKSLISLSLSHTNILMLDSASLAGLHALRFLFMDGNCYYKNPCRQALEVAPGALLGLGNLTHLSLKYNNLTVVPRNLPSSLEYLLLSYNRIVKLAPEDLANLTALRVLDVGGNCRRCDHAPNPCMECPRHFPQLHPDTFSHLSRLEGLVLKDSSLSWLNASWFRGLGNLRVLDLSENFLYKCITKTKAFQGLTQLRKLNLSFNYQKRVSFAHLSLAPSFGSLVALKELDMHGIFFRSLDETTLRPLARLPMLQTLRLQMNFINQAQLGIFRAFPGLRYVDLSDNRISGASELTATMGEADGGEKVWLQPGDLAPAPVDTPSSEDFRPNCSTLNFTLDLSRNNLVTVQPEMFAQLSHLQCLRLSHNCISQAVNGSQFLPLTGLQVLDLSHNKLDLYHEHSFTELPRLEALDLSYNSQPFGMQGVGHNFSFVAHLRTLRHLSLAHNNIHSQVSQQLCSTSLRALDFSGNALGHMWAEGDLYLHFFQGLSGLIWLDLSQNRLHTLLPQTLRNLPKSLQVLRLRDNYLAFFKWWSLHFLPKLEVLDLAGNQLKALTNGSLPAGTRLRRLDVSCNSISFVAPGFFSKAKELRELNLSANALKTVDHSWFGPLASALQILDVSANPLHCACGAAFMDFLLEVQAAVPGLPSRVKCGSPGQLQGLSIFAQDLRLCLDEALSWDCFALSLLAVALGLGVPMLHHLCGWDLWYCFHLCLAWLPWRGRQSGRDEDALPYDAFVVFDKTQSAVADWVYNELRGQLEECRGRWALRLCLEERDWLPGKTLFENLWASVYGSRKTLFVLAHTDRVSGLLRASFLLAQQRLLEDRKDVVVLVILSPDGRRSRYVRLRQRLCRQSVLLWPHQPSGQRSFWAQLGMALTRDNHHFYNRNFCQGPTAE
Procedure, shortened: as §1

| SMILES | IC50 (human TLR7) [nM] | IC50 (human TLR8) [nM] | IC50 (human TLR9) [µM] |
| --- | --- | --- | --- |
| COc1cc(-c2cc3[nH]ncc3cc2C)cn2ncnc12 [Example 64, 8-methoxy-6-(5-methyl-1H-indazol-6-yl)-[1,2,4]triazolo[1,5-a]pyridine] | 905 | 41.8 | 9.04 |
| Cc1cc2c(C3CCC(NC4COC4)CC3)n[nH]c2cc1-c1cc(C)c2ncnn2c1 (single isomer, unassigned) [Example 35, N-(4-(5-methyl-6-(8-methyl-[1,2,4]triazolo[1,5-a]pyridin-6-yl)-1H-indazol-3-yl)cyclohexyl)oxetan-3-amine] | 29.7 | 0.8 | 3.1 |
| Cc1cc2c(C3CCN(CCC#N)CC3)n[nH]c2cc1-c1cc(C)c2ncnn2c1 [Example 72, 3-(4-(5-methyl-6-(8-methyl-[1,2,4]triazolo[1,5-a]pyridin-6-yl)-1H-indazol-3-yl)piperidin-1-yl)propanenitrile] | 50.8 | 2.3 | 11.2 |
| Cc1cc2c(C3CCN(CC(N)=O)CC3)n[nH]c2cc1-c1cc(C)c2ncnn2c1 [Example 70, 2-(4-(5-methyl-6-(8-methyl-[1,2,4]triazolo[1,5-a]pyridin-6-yl)-1H-indazol-3-yl)piperidin-1-yl)acetamide] | 18.3 | 1.4 | 6.21 |
| Cc1cc(-c2cc(C)c3ncnn3c2)cc2[nH]nc(C3CCCN(C)C3)c12 (stereo not drawn) [Example 61, 8-methyl-6-(4-methyl-3-(1-methylpiperidin-3-yl)-1H-indazol-6-yl)-[1,2,4]triazolo[1,5-a]pyridine] | 13.5 | 19.5 | 3.34 |
| Cc1cc(-c2cc3[nH]nc(C4CCCNC4)c3cc2C)cc(C)n1 (stereo not drawn) [Example 50, 6-(2,6-dimethylpyridin-4-yl)-5-methyl-3-(piperidin-3-yl)-1H-indazole] | 63.4 | 1.5 | 0.404 |

Further lines, results first:

| IC50 (human TLR7) [nM] | IC50 (human TLR8) [nM] | IC50 (human TLR9) [µM] | SMILES |
| --- | --- | --- | --- |
| 1.1 | 0.1 | 10.8 | Cc1cc(-c2cc3[nH]nc(C4CCC(NCCS(C)(=O)=O)CC4)c3cc2C(C)C)cn2ncnc12 (stereo not drawn) [Example 126, 4-(5-isopropyl-6-(8-methyl-[1,2,4]triazolo[1,5-a]pyridin-6-yl)-1H-indazol-3-yl)-N-(2-(methylsulfonyl)ethyl) cyclohexan-1-amine] |
| 2.7 | 0.2 | 17.2 | CCc1cc2c(C3CCN(CC(N)=O)CC3)n[nH]c2cc1-c1cc(C)c2ncnn2c1 [Example 92, 2-(4-(5-ethyl-6-(8-methyl-[1,2,4]triazolo[1,5-a]pyridin-6-yl)-1H-indazol-3-yl)piperidin-1-yl)acetamide] |
| 1 | 0.4 | 10.9 | Cc1cc(-c2cc3[nH]nc(C4CCNCC4)c3cc2C(C)C)cn2ncnc12 [Example 102, 6-(5-isopropyl-3-(piperidin-4-yl)-1H-indazol-6-yl)-8-methyl-[1,2,4]triazolo[1,5-a]pyridine] |
| 0.6 | 0.2 | 9.56 | Cc1cc(-c2cc3[nH]nc(C4CCC(N5CC6(COC6)C5)CC4)c3cc2C(C)C)cn2ncnc12 (single isomer, unassigned) [Example 128, 6-(4-(5-isopropyl-6-(8-methyl-[1,2,4]triazolo[1,5-a]pyridin-6-yl)-1H-indazol-3-yl)cyclohexyl)-2-oxa-6-azaspiro[3.3]heptane] |
| 1.9 | 1.6 | 2.57 | CCc1cc(-c2cc(C)c3ncnn3c2)cc2[nH]nc(OC3CCC(N(C)C)CC3)c12 (single isomer, unassigned) [Example 168, 4-((4-ethyl-6-(8-methyl-[1,2,4]triazolo[1,5-a]pyridin-6-yl)-1H-indazol-3-yl)oxy)-N,N-dimethylcyclohexan-1-amine] |
| 8.1 | 0.2 | 3.95 | Cc1cc2c(C3CCC(NC4COC4)CC3)n[nH]c2cc1-c1cc(C)c2ncnn2c1 (single isomer, unassigned) [Example 34, N-(4-(5-methyl-6-(8-methyl-[1,2,4]triazolo[1,5-a]pyridin-6-yl)-1H-indazol-3-yl)cyclohexyl)oxetan-3-amine] |
| 5.8 | 0.12 | 11.9 | Cc1cc(-c2cc3[nH]nc(N4CCN(C(C)C)CC4)c3cc2C(C)C)cn2ncnc12 [Example 208, 6-(5-isopropyl-3-(4-isopropylpiperazin-1-yl)-1H-indazol-6-yl)-8-methyl-[1,2,4]triazolo[1,5-a]pyridine] |
| 13.2 | 1.6 | 3.73 | Cc1cc(-c2cc(C)c3ncnn3c2)cc2[nH]nc(OC3CCN(Cc4cn(C)nn4)CC3)c12 [Example 193, 8-methyl-6-(4-methyl-3-((1-((1-methyl-1H-1,2,3-triazol-4-yl)methyl)piperidin-4-yl)oxy)-1H-indazol-6-yl)-[1,2,4]triazolo[1,5-a]pyridine] |
